Test results published in patent US7592344B2, “NK1 and NK2-antagonists and compositions and methods of using the same” (Solvay Pharmaceuticals GmbH, priority 2005, dated 2009).

Key:
human NK2 receptor [1] = biological target: T1, human NK2 receptor (Homo sapiens, UniProt P21452); assay: Functional cellular test, Ca2+ measurement using FLIPR, NK2 (NKA stimulated CHO cells)
T1 sequence (P21452 1-398): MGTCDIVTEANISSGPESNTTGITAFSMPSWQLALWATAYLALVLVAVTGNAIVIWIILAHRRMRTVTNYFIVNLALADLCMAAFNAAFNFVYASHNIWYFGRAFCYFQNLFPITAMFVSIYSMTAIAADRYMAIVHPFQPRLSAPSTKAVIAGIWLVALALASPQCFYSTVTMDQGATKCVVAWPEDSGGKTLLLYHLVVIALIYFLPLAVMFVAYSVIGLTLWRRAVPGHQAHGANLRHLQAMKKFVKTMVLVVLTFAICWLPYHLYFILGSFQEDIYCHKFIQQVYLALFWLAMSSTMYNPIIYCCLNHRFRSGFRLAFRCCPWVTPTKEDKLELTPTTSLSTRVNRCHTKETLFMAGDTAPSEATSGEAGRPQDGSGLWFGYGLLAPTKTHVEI
Experimental: (§4) Functional Cellular Tests of the NK1- and NK2-antagonistic Effects
(§5) Functional cellular tests of the antagonistic effect of the compounds of the present invention on the human tachykinin receptors were performed in CHO cells expressing the recombinant human NK1 or NK2 receptor. In these tests the inhibition of ligand induced increase in mobilization of intracellular calcium and the inhibition of ligand induced phosphorylation of MAPK were determined, which can be used as a measure of functional activity of tachykinin-antagonists. Additionally, the antagonistic properties of reference compounds on the different tachykinin receptors were characterized for comparison.
(§6) The effects of test compounds were assessed using Chinese hamster ovary (CHO) fibroblast cells, stably expressing cloned human NK1 or NK2 receptors. The NK receptor in coupled to Gq. The activation of the Gq protein by ligand binding to the receptor leads to a mobilization of intracellular calcium and phosphorylation of MAPK. Both systems were used to determine functional effects of the test compounds.
(§7) Ca^2+Measurements Using FLIPR for NK1 and NK2 Activity
(§8) For tests, cell were seeded 24 hours prior to the experiment into black 96-well microplates. The cell density was 2.2×10^4 cells/well. All steps were done under sterile conditions. In order to observe changes in intracellular calcium levels, cells were loaded with a calcium-sensitive dye. This dye (FLUO-4, from Molecular Probes) excites at 488 nm, and emits in the 560 nm range, only if a complex with calcium is formed. For the dye loading the growth-medium was aspirated out of the well without disturbing the confluent cell layer and 100 μl loading medium (HBSS, 4 μM FLUO-4, 0.005% (w/v) pluronic acid, 2.5 mM probenecid, 20 mM HEPES, pH 7.4) was dispensed into each well using an automatic pipettor system (Multidrop, Labsystems). Pluronic acid was added to increase dye solubility and dye uptake into the cells, whereas probenecid, an anion exchange inhibitor, was added to the loading medium to increase dye retention in the cells. The cells were incubated in a 5% CO2 incubator at 37° C. for 40 minutes. After dye loading, the cells were washed three times with wash-buffer (HBSS, 2.5 mM probenecid, 20 mM HEPES, pH 7.4) to reduce basal fluorescence. In the last washing step the buffer was aspirated and replaced with 100 μl washing buffer. […] The FLIPR setup parameters were set to 0.4 sec exposure length, filter 1, 50 μl fluid addition, pipettor height at 125 μl, dispense speed 40 μl/sec without mixing. Maximal fluorescence changes were obtained using the statistic function of the FLIPR software, and data plotted using GraphPad Prism 4. All points were expressed as a percentage inhibition of the control agonist. IC50 values were determined using sigmoidal dose-response curve fitting.

human NK2 receptor [2] = biological target: T1, human NK2 receptor; assay: Binding power to NK2 receptors in vitro ([3H]-SR 48968 displacement, CHO cell membranes); set-up: expressed in transfected cells; host or cells: CHO cells (membrane preparation); details: human NK2 receptor in CHO membranes, ligand [3H]-SR 48968, 90 min incubation; for Ki: read-out: pKi (NK2) (converted)
Experimental: The affinity of the test substances to human NK2 receptors was measured in vitro. The ability of the test substances to displace the selective NK2 receptor antagonist SR 48968 (=saredutant) used as reference ligand from its corresponding bond was determined.
The receptor binding studies were carried out with radioactively marked [^3H]-SR 48968 (from Amersham) as ligand. For the binding test, different samples of a membrane preparation of CHO cells (=egg cells of the Chinese hamster, […]), which express the human NK2 receptor (for preparation, see N. P. Gerard et al., Journal of Biological Chemistry 265/33 (1990) 20455-20462), were incubated for 90 minutes (=min.) with a solution of the marked ligand, with the incubation mixtures containing no test substance or additions of different concentrations of test substance. Then in each case the membrane-bound ligands in the samples were separated from free ligands by filtration. The fraction remaining in the filter was washed several times with buffer solution, before its radioactivity was measured using a liquid scintillation counter. That concentration which effects half-maximum displacement of the bound reference ligand was determined as IC50 of the respective test substance. The inhibition constant (Ki value) of the test substance was calculated from the respective IC50 value, and was stated as the negative logarithmized value thereof (pKi).
If several measurements were performed, the average thereof was listed each time. The pKi value is a measurement of the affinity of the test substances to human NK2 receptors.

human NK1 receptor [3] = biological target: T2, human NK1 receptor (Homo sapiens, UniProt P25103); assay: Binding power to NK1 receptors in vitro ([3H]-Substance P displacement, CHO cell membranes); set-up: expressed in transfected cells; host or cells: CHO cells (membrane preparation); details: human NK1 receptor in CHO membranes, ligand [3H]-Substance P; for Ki: read-out: pKi (NK1) (converted)
Experimental: 1. Determination of the Binding Power of the Test Substances to NK1 Receptors In Vitro.
Affinity of the test substances to human NK1 receptors was measured in vitro.
The receptor binding studies were performed with [^3H]-Substance P as ligand. For the binding test, different samples of a membrane preparation of CHO cells (=egg cells of the Chinese hamster, […]), which express the human NK1 receptor (“Accession Number” of the associated nucleic acid sequence=M74290; “Accession Number” of the associated protein sequence=P25103; cf. Takeda, Y.; Chou, K. B., Takeda, J.; Sachais, B. S. and Krause, J. E; Biochemical and Biophysical Research Communications, 179(3) (1991) 1232-1240), were incubated with a solution of the marked ligand, with the incubation mixtures containing no test substance or additions of different concentration of test substance. Then, separation of bound and free ligands was performed in each of the samples with the aid of glass-fiber filtration. The fraction remaining in the filter was washed several times with buffer solution and then the radioactivity of the fraction remaining in the filter was measured using a beta scintillation counter.
For the compounds of Examples 1 to 14, that concentration which effects half maximum displacement of the bound ligand was determined as IC50 of the respective test substance. From this, the corresponding inhibition constant (Ki value) of the test substance was calculated, and was stated as the negative common logarithm of the Ki value (=pKi value) The pKi value is a measurement of the affinity of the test substances to human NK1 receptors.

human NK1 receptor [4] = biological target: T2, human NK1 receptor; assay: Functional cellular test, Ca2+ measurement using FLIPR, NK1 (substance P stimulated CHO cells)
Experimental: as §4, §5, §6, §7, §8

NK2 receptors [5] = biological target: T3, NK2 receptors (Cavia porcellus, UniProt Q64077); assay: NK2-receptor-antagonistic effectiveness in vivo in anesthetized guinea pigs (NKA-induced late hypotension, bronchoconstriction, colonic motility); details: guinea pig
T3 construct: from tissue; host or cells: whole animal: anesthetized Pirbright-White guinea pigs
T3 sequence (Q64077 1-402): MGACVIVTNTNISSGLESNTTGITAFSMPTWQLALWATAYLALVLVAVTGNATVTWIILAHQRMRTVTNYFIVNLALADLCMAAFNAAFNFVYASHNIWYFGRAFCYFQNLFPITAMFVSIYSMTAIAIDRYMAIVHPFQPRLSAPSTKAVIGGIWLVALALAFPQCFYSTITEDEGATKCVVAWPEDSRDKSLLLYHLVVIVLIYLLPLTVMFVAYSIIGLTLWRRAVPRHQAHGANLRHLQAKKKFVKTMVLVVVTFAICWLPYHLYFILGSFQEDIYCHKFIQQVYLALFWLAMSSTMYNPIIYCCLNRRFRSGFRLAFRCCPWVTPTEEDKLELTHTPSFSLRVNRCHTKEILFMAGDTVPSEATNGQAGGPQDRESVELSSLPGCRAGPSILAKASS
Source text: (§1) 6. Determination of the NK1- and NK2-receptor-antagonistic Effectiveness of the Test Substances In Vivo
(§2) The NK1- and NK2-antagonistic activities of the test substances were investigated in anesthetized guinea pigs in each case after intravenous (=i.v.) and oral (=p.o.) administration in vivo. With the present test model it is possible to detect both NK2-antagonistic effects in three different organ systems (respiratory tracts, colon and circulation) and NK1-antagonistic effects (rapid drop in blood pressure) in an animal simultaneously.
Pirbright-White guinea pigs having a body weight of 500-700 g were anesthetized with ketamine/xylazine (67/13 mg/kg subcutaneously, initial dose, further doses administered as required). The animals were provided with an intravenous catheter in order to administer the substance and an intra-arterial catheter to measure the blood pressure. The animals were artificially ventilated via a tracheal cannula and the respiratory pressure was recorded by a pressure transducer. A balloon was introduced into the distal colon of the animals for manometric recording of colon motility by a pressure transducer. Blood pressure, heart rate, respiratory pressure and colonic pressure were measured continuously for each animal and plotted on a recorder and by a digital data-processing system. […] The second phase of delayed hypotension (=phase of maximum hypotension after 2-5 min.) on the other hand is mediated via NK2 receptors, since they can be blocked by specific NK2 receptor antagonists.
These ED50 values obtained from cumulative dose effect curves are plotted in Table 6.
(§3) The antagonistic effects of the test substances were then determined as “area under the curve” (“AUC”) over the investigation period after administration of the test substances (1-180 min after administration) and the ED50 values after oral administration obtained therefrom were plotted in Table 7.

NK1 receptors [6] = biological target: T4, NK1 receptors (Cavia porcellus, UniProt P30547); assay: NK1-receptor-antagonistic effectiveness in vivo in anesthetized guinea pigs (NKA-induced early hypotension); details: guinea pig
T4 construct: from tissue; host or cells: whole animal: anesthetized Pirbright-White guinea pigs
Source text: as §1, §2
Pirbright-White guinea pigs having a body weight of 500-700 g were anesthetized with ketamine/xylazine (67/13 mg/kg subcutaneously, initial dose, further doses administered as required). […] The animals were artificially ventilated via a tracheal cannula and the respiratory pressure was recorded by a pressure transducer. […] Blood pressure, heart rate, respiratory pressure and colonic pressure were measured continuously for each animal and plotted on a recorder and by a digital data-processing system. […]
as §3

NK1 receptors [7] = biological target: T4, NK1 receptors; assay: Functional NK1 antagonism on isolated guinea pig aorta rings (inhibition of Substance P-induced relaxation); details: phenylephrine tone, 0.01 μmol Substance P
Experimental: 3. Determining of the Functional NK1 Antagonism of the Test Substances on Isolated Guinea Pig Tissue In Vitro
The action antagonistic to NK1 receptors of the test substances was measured in vitro on isolated ring preparations, kept in an oxygenated nutrient solution, of the aortas of Pirbright-White guinea pigs.
In order to measure the contraction of the vessel muscles, the preparations were fixed to a hook, joined by a thread to a force measuring apparatus and the contractions were recorded in each case on a plotter. The aorta preparations were tonicized with phenylephrine. […] The relaxations before and after the administration of the test substance were qualified in percent. The effective concentration of the half maximum inhibition of the relaxation of the tone (=EC50) was calculated. The negative common logarithm of the EC50 value (=pEC50) was given as characteristic variable. The pEC50 value is a measurement of the functional effectiveness of the test substances on NK1 receptors.

NK2 receptors [8] = biological target: T3, NK2 receptors; assay: Functional NK2 antagonism on isolated guinea pig gall-bladder (inhibition of NKA-induced contraction); details: NKA 0.1 μmol/l, two hours' incubation, IC50 in mol/l
Experimental: 4. Determination of the Functional […] of the Test Substances on Isolated Guinea Pig Tissue In Vitro.
The NK2 receptor-antagonizing action of the test substances was determined on isolated gall-bladder preparations from Pirbright-White guinea pigs, held in an oxygen-saturated nutrient solution. To this end, the preparations were fastened on one hand in the nutrient solution to organ holders and on the other hand on a force meter by a thread.
The concentration of the test substances was increased iteratively in the subsequent experiments as a function of the result in logarithmic whole or half steps, until at least one concentration above or below 50% inhibition of contraction was determined (up to at most 10^−5 mol/l). For each concentration, the average value of inhibition of contraction was calculated from 2 to 4 preparations. In each case, the concentration of half-maximum inhibition (IC50) per test substance was calculated as characteristic variable. In each case the logarithmized value of the IC50 per test substance is given as plC50 in [mol/l].

[9] = i.v., NKA stimulus 1 min after dosing

T2 sequence (P25103 whole entry): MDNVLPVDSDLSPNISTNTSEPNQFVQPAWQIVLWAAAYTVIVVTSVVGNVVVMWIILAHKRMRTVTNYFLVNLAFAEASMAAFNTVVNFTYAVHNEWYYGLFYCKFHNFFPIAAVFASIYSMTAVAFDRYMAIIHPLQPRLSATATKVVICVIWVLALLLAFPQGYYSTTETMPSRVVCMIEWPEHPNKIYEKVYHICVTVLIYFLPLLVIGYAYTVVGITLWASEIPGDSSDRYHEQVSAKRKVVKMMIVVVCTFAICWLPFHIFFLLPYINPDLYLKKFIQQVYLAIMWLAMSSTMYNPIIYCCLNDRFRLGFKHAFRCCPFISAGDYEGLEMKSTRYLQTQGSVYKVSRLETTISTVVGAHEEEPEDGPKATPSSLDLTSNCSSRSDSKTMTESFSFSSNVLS
T4 sequence (P30547 whole entry): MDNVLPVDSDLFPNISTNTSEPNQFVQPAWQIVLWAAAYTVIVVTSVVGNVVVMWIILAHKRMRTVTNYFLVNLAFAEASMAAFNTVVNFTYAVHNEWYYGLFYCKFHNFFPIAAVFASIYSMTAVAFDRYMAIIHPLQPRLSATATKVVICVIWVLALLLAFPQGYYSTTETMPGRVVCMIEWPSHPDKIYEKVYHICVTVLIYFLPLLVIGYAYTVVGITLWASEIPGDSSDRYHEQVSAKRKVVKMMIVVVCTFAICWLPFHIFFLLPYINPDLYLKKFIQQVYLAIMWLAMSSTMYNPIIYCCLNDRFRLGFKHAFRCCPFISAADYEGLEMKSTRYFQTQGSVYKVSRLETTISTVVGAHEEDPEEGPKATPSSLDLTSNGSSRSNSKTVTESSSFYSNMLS

| Structure (SMILES) | Kb (human NK2 receptor [1]) [nM] | Ki (human NK2 receptor [2]) [nM] | Ki (human NK1 receptor [3]) [nM] | Kb (human NK1 receptor [4]) [nM] | further results |
| --- | --- | --- | --- | --- | --- |
| COc1ccc([C@@H]([C@H](O)CO)N2CCN(CC[C@H](CN(C)C(=O)c3cc(C#N)cc4ccccc34)c3ccc(Cl)c(Cl)c3)CC2)cc1 [Compound 16, 3-cyano-N-[(2)-2-(3,4-dichlorophenyl)-4-{4-[(1S,2S)-2,3-dihydroxy-1-(4-methoxyphenyl)propyl]piperazin-1-yl}butyl]-N-methyl-1-naphthamide] | 0.794 | 794 | 1 | 0.501 |  |
| CN(C[C@@H](CCN1CCN([C@@H](c2ccco2)[C@H](O)CO)CC1)c1ccc(Cl)c(Cl)c1)C(=O)c1cc(C#N)cc2ccccc12 [Compound 1, 3-cyano-N-[(2S)-2-(3,4-dichlorophenyl)-4-{4-[(1R,2S)-1-(2-furyl)-2,3-dihydroxy-propyl]-piperazin-1-yl}butyl]-N-methyl-1-naphthamide] |  |  |  |  | oral activity as NK2 receptor antagonist (in words) (NK2 receptors [5]; oral): active orally; melting point: 140 to 142 °C; oral activity as NK1 receptor antagonist (in words) (NK1 receptors [6]; oral): active orally |
| CN(CC(CCN1CCN(C(c2ccco2)C(O)C(O)CO)CC1)c1ccc(Cl)c(Cl)c1)C(=O)c1cc(C#N)cc2ccccc12 (centres unmarked) [Compound 7] |  |  |  |  | ED50 iv after 1 min (cumulative), NK2 (bronchoconstriction) (NK2 receptors [5]; [9]): 0.207 µmol/kg; ED50 iv after 1 min (cumulative), NK2 (colonic motility) (NK2 receptors [5]; [9]): 0.309 µmol/kg; ED50 iv after 1 min (cumulative), NK2 (late hypotension) (NK2 receptors [5]; [9]): 0.338 µmol/kg; pA2 (NK2) (human NK2 receptor [1]; CHO cells with human NK2 receptor, FLIPR Ca2+, NKA 10^-7 M): 8.1; pKi (NK2) (human NK2 receptor [2]): 7.4; pKi (NK1) (human NK1 receptor [3]): 8.3; pA2 (NK1) (human NK1 receptor [4]; CHO cells with human NK1 receptor, FLIPR Ca2+, substance P 10^-8 M): 8.8; ED50 iv after 1 min (cumulative), NK1 (early hypotension) (NK1 receptors [6]; [9]): 0.052 µmol/kg |
| CN(C[C@@H](CCN1CCN([C@@H](c2cccs2)[C@H](O)CO)CC1)c1ccc(Cl)c(Cl)c1)C(=O)c1cc(C#N)cc2ccccc12 [Compound 9, 3-cyano-N-[(2S)-2-(3,4-dichlorophenyl)-4-{4-[(1R,2S)-2,3-dihydroxy-1-(2-thienyl)propyl]piperazin-1-yl}butyl]-N-methyl-1-naphthamide] | 10 |  |  |  |  |
| CN(CC(CCN1CCN(C(c2ccsc2)C(O)C(O)C(O)CO)CC1)c1ccc(Cl)c(Cl)c1)C(=O)c1cc(C#N)cc2ccccc12 (centres unmarked) [Compound 5] |  |  |  |  | pKi (NK2) (human NK2 receptor [2]): 7.3; pKi (NK1) (human NK1 receptor [3]): 8.9; pEC50 (NK1 receptors [7]): 10.0; pIC50 (NK2 receptors [8]): 7.5 |
| CN(CC(CCN1CCN(C(Cc2ccccc2)C(O)CO)CC1)c1ccc(Cl)c(Cl)c1)C(=O)c1cc(C#N)cc2ccccc12 (centres unmarked) [Compound 24] | 15.8 | 31.6 | 10 | 7.94 |  |
| CC(=O)OCC(O)C(Cc1ccccc1)N1CCN(CCC(CN(C)C(=O)c2cc(C#N)cc3ccccc23)c2ccc(Cl)c(Cl)c2)CC1 (centres unmarked) [Compound 26] | 39.8 | 100 | 7.94 | 10 |  |
| CC(=O)OC[C@@H](OC(C)=O)[C@H](c1ccco1)N1CCN(CC[C@H](CN(C)C(=O)c2cc(C#N)cc3ccccc23)c2ccc(Cl)c(Cl)c2)CC1 [Compound 27, (2S,3R)-2-(acetyloxy)-3-{4-[(3S)-4-[3-cyano-1-naphthoyl)(methyl)amino]-3-(3,4-dichlorophenyl)butyl]piperazin-1-yl}-3-(2-furyl)propyl acetate] | 7.94 | 25.1 | 6.31 | 0.631 |  |
